Experimental data published in US20230203041A1, “ANTAGONISTS OF THE ADENOSINE A2A RECEPTOR” (AdoRx Therapeutics Limited, priority 2020, published 2023).
pIC50, pKi: −log10 of the molar value.

Tests used:
[1] = molecular target: T1, human Adenosine A3 receptor (Homo sapiens, UniProt P0DMS8); assay: Adenosine receptor TR-FRET binding assay (CA200645 displacement), A3
T1 sequence (P0DMS8 1-318): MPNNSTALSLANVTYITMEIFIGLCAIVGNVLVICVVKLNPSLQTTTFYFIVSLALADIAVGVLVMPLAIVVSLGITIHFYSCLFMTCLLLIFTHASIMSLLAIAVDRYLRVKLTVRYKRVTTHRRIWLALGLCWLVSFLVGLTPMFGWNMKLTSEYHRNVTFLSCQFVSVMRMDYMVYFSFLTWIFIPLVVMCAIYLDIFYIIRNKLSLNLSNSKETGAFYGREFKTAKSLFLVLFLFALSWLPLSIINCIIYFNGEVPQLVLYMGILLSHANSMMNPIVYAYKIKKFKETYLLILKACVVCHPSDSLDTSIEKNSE

[2] = molecular target: T2, human Adenosine A2a receptor (Homo sapiens, UniProt P29274); assay: Adenosine receptor TR-FRET binding assay (CA200645 displacement), A2a; details: 100 nM CA200645, CHO cell membranes, 2 hours at room temperature
T2 construct: expressed in transfected cells; host or cells: CHO cell membranes
T2 sequence (P29274 whole entry): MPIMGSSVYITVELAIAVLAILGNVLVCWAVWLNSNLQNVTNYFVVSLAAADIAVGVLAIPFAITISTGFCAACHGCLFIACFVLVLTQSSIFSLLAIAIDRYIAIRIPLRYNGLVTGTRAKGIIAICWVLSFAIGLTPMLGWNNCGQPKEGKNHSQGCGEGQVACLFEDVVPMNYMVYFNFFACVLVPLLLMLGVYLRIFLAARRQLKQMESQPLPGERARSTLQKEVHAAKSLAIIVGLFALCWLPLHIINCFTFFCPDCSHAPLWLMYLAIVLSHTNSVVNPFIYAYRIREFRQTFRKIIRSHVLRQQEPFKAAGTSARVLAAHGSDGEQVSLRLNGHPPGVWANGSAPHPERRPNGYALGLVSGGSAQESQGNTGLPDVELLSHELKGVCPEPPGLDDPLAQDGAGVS
Method: (§1) All FRET binding experiments were conducted at room temperature in white 384-well plates, in assay binding buffer containing 1×LabMed (Cisbio, France), 100 μg/mL saponin, 1% DMSO and 0.02% pluronic acid. Binding of the fluorescently labelled Adenosine receptor antagonist XAC (CA200645, FRET acceptor) to terbium-labelled A1, A2a, A2b and A3 adenosine receptors (FRET donors) was detected by time-resolved FRET due to the close proximity of the donor and acceptor in a binding event. To investigate the ability of unlabelled test compounds to bind to Adenosine A1, A2a, A2b and A3 receptors, dose response curves were constructed that determined the ability of a range of concentrations to inhibit the binding of 30 nM CA200645 to the A2b receptor and 100 nM CA200645 to the A1, A2a, and A3 receptor.
(§2) Serial dilution (1:3 dilutions) of test compounds in neat DMSO and transfer of a 400 nL sample of test compound into the assay plate was carried out using the Mosquito (TTP Labtech, UK). The compound samples were incubated for 2 hours at room temperature with a fixed concentration of CA200645 defined for each receptor (see above) and CHO cell membranes containing the human Adenosine A1 (0.5 μg/well), A2a (0.3 μg/well), A2b (1 μg/well) or A3 (1 μg/well) receptor in 40 μL of assay buffer. Total and non-specific binding of CA200645 was determined in the absence and presence of 10 μM XAC, respectively. Following 2 hours incubation, the level of CA200645 binding was detected on a Pherastar FSX (BMG Labtech, Germany) using standard TR-FRET settings. The terbium donor was excited with three laser flashes at a wavelength of 337 nm, and donor and acceptor emission was detected at 620 nm and 665 nm wavelengths, respectively. FRET ratios were obtained by multiplying the acceptor/donor ratio value by 10,000. Specific binding was determined by subtracting the non-specific binding FRET ratio from the total binding FRET ratio. Compound IC50 curves were analysed using GraphPad Prism 7.0 (GraphPad, USA) and Ki affinity values were determined from the obtained IC50 values using the method of Cheng and Prusoff.

human PBMCs = assay: CD3/CD28 stimulated IL-2 release NECA reversal assay in human PBMCs; assay type: cell-based; details: PBMC, CD3/CD28 antibody stimulated, 1 uM NECA, 24 hours, IL-2 in culture supernatant;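 also: dose-response as % inhibition where 100% equals no-NECA control wells with CD3/CD28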
Method: Blood is drawn from healthy volunteers using sodium citrate as the anticoagulant (0.3% final concentration). After centrifugation of the blood over Histopaque-1077, PBMCs are collected from the Histopaque/plasma interface and washed twice in PBS (300 g for 10 mins at room temp). Cells are plated at 50,000 cells/well in 150 μl RPMI/10% FCS in 96-well cell culture plates that have been precoated with 1 ug/ml CD3 antibody. 50 μl diluted compound mix is added to the cells, to obtain final concentrations of 1 ug/ml CD28 antibody, 1 uM NECA and 0.003-10 μM adenosine receptor antagonist. Assay plates are incubated for 24 hours at 37° C. in a humidified incubator. Culture supernatant is tested for IL-2 levels using the human IL-2 Tissue Culture Kit (Meso Scale Discovery).

[3] = test system: CD8+ T cells in human whole blood; assay: Measurement of pCREB in CD8+ T cells in human whole blood; assay type: cell-based; details: T-cell, 1 h; heparinised human whole blood, rolipram, 3 μM NECA, 60 min, phospho-CREB in CD8+ T cells by FACS
Method: Heparinised human whole blood was pre-incubated at 37° C. with serial dilutions of A2a antagonists for 20 min. and the phosphodiesterase inhibitor rolipram to amplify the pCREB response. The adenosine receptor agonist NECA is then added at a final concentration of 3 μM and following a 60 min incubation the blood is fixed and red blood cells lysed. White blood cells are isolated, permeabilized and stained with directly conjugated fluorescent antibodies to phospho-CREB (Alexa Fluor 488) and CD8 (Alexa Fluor 647) and the level of phospho-CREB in CD8+ T cells is measured by FACS using a BD Accuri C6 Flow Cytometer.

[4] = molecular target: T3, human Adenosine A2b receptor (Homo sapiens, UniProt P29275); assay: Adenosine receptor TR-FRET binding assay (CA200645 displacement), A2b; details: 30 nM CA200645, CHO cell membranes, 2 hours at room temperature
T3 construct: expressed in transfected cells; host or cells: CHO cell membranes
T3 sequence (P29275 1-332): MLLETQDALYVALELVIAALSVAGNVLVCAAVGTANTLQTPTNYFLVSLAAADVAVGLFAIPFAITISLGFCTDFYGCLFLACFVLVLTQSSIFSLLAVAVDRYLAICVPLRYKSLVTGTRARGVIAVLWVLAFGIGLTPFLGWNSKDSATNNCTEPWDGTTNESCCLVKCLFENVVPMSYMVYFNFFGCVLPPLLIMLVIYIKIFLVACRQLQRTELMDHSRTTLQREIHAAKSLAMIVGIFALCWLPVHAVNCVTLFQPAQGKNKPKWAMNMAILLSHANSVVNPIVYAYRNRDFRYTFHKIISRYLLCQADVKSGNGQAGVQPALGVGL

[5] = molecular target: T4, human Adenosine A1 receptor (Homo sapiens, UniProt P30542); assay: Adenosine receptor TR-FRET binding assay (CA200645 displacement), A1
T4 sequence (P30542 1-326): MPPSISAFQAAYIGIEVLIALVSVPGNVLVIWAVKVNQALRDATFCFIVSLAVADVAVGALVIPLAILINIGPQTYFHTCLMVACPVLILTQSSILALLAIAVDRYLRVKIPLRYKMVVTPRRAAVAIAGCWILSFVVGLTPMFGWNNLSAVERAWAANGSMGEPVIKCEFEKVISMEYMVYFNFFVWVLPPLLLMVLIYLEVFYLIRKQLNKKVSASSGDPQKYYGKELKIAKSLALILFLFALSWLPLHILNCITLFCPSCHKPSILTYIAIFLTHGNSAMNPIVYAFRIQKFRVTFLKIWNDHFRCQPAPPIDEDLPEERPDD
Method: as §1, §2

Row | Compound | pKi [1] | pKi [2] | pIC50 [3] | pKi [4] | pKi [5] | pIC50 (human PBMCs)
1 | Cc1cc(-c2c(-c3cccc(C#N)c3)nn3ccc(N[C@@H](C)C(C)(C)O)nc23)cc(Cl)n1 [Example 2.15] | < 6.00 | 8.70 | 6.04 | 6.62 | 6.05 | 7.23
2 | Cc1cc(-c2c(-c3cccc(C#N)c3)nn3ccc(N[C@@H]4COC[C@@H]4O)nc23)cc(Cl)n1 [Example 2.16] | < 6.00 | 8.68 | 6.41 | 8.40 | 6.63 | 8.15
3 | Cc1cc(-c2c(-c3cccc(C#N)c3)nn3ccc(N[C@H]4C[C@H](O)C4)nc23)cc(Cl)n1 [Example 2.18] | 5.61 | 8.59 | 5.73 | 8.00 | 6.72 | 7.34
4 | Cc1cc(-c2c(-c3cccc(C#N)c3)nn3ccc(N[C@H](C)C(C)(C)O)nc23)cc(Cl)n1 [Example 2.20] | < 6.00 | 8.47 | 6.18 | 7.74 | 6.58 | 7.17
5 | Cc1cc(-c2c(-c3cccc(C#N)c3)nn3ccc(N4CCOC(CCN(C)C)C4)nc23)cc(Cl)n1 (stereo not drawn) [Example 2.21] | < 6.00 | 8.34 | 5.91 | 7.72 | 6.75 | 7.51
6 | Cc1cc(-c2c(-c3cccc(C#N)c3)nn3ccc(NCc4nnc[nH]4)nc23)cc(Cl)n1 [Example 2.23] | < 6.00 | 8.19 | 6.24 | 8.52 | 7.26 | 7.62
7 | Cc1cc(-c2c(-c3cccc(C#N)c3)nn3ccc(NC[C@@H](C)O)nc23)cc(Cl)n1 [Example 3, 3-[3-(2-Chloro-6-methyl-4-pyridyl)-5-[[(2R)-2-hydroxypropyl]amino]pyrazolo[1,5-a]pyrimidin-2-yl]benzonitrile] | < 6.00 | 9.22 | 6.12 | 9.00 | 7.13 | 7.77
8 | Cc1cc(-c2c(-c3cccc(C#N)c3)nn3ccc(NC[C@H](C)O)nc23)cc(Cl)n1 [Example 3.1] | 5.59 | 8.66 | 6.25 | 8.30 | 7.24 | 7.64
9 | Cc1cc(-c2c(-c3cccc(C#N)c3)nn3ccc(NCC4(O)CC4)nc23)cc(Cl)n1 [Example 3.4] | 5.61 | 9.40 | 6.59 | 8.70 | 7.25 | 7.00
10 | Cc1cc(-c2c(-c3cccc(C#N)c3)nn3ccc(NC4CCNCC4)nc23)cc(Cl)n1 [Example 4, 3-[3-(2-Chloro-6-methyl-4-pyridyl)-5-(4-piperidylamino)pyrazolo[1,5-a]pyrimidin-2-yl]benzonitrile] | < 6.00 | 10.00 | 5.80 | 8.52 | 7.82 | 8.10

Now from value to compound, other results behind:

Row | pKi [1] | pKi [2] | pIC50 [3] | pKi [4] | pKi [5] | Compound | pIC50 (human PBMCs)
11 | < 6.00 | 8.92 | 5.69 | 7.47 | 7.49 | Cc1cc(-c2c(-c3cccc(C#N)c3)nn3ccc(N[C@@H]4CCCNC4)nc23)cc(Cl)n1 [Example 4.2] | 7.27
12 | < 6.00 | 8.38 | 5.97 | 7.60 | 6.72 | Cc1cc(-c2c(-c3cccc(C#N)c3)nn3ccc(NC[C@H]4COCCN4)nc23)cc(Cl)n1 [Example 4.5] | 7.92
13 | < 6.00 | 9.10 | 5.74 | 8.05 | 6.53 | Cc1cc(-c2c(-c3cccc(C#N)c3)nn3ccc(C(=O)NC45CC(O)(C4)C5)nc23)cc(Cl)n1 [Example 5, 3-(2-Chloro-6-methyl-4-pyridyl)-2-(3-cyanophenyl)-N-(3-hydroxy-1-bicyclo[1.1.1]pentanyl)pyrazolo[1,5-a]pyrimidine-5-carboxamide] | 7.64
14 | < 6.00 | 10.00 | 5.54 | 7.80 | 6.32 | Cc1cc(-c2c(-c3cccc(C#N)c3)nn3ccc(C(=O)NC(C)(C)C)nc23)cc(Cl)n1 [Example 5.1] | 7.70
15 | < 6.00 | 9.70 | 6.55 | 7.62 | 6.53 | Cc1cc(-c2c(-c3cccc(C#N)c3)nn3ccc(C(=O)NCC(C)(C)O)nc23)cc(Cl)n1 [Example 5.2] | 8.40
16 | < 6.00 | 8.34 | 5.07 | 7.80 | 6.52 | Cc1cc(-c2c(-c3cccc(C#N)c3)nn3ccc(C(N)=O)nc23)cc(Cl)n1 [Example 5.6] | 7.80
17 | 6.02 | 10.00 | 7.52 | 8.22 | 7.24 | Cc1cc(-c2c(-c3cccc(C#N)c3)nn3ccc(C(=O)N[C@@H](C)C(C)(C)O)nc23)cc(Cl)n1 [Example 6, 3-(2-Chloro-6-methyl-4-pyridyl)-2-(3-cyanophenyl)-N-[(1S)-2-hydroxy-1,2-dimethyl-propyl]pyrazolo[1,5-a]pyrimidine-5-carboxamide] | 8.70
18 | 5.64 | 9.52 | 6.08 | 8.00 | 6.91 | Cc1cc(-c2c(-c3cccc(C#N)c3)nn3ccc(C(=O)NCC4(O)CC4)nc23)cc(Cl)n1 [Example 6.2, 3-(2-Chloro-6-methyl-4-pyridyl)-2-(3-cyanophenyl)-N-[(1-hydroxycyclopropyl)methyl]pyrazolo[1,5-a]pyrimidine-5-carboxamide] | 8.10
19 | 5.74 | 9.22 | 6.37 | 7.52 | 6.40 | Cc1cc(-c2c(-c3cccc(C#N)c3)nn3ccc(C(=O)N[C@H](C)C(C)(C)O)nc23)cc(Cl)n1 [Example 6.4, 3-(2-Chloro-6-methyl-4-pyridyl)-2-(3-cyanophenyl)-N-[(1 R)-2-hydroxy-1,2-dimethyl-propyl]pyrazolo[1,5-a]pyrimidine-5-carboxamide] | 8.22
20 | < 6.00 | 9.05 | 6.80 | 8.70 | 6.63 | Cc1cc(-c2c(-c3cccc(C#N)c3)nn3ccc(C(=O)NCC(C)(O)CO)nc23)cc(Cl)n1 (stereo not drawn) [Example 6.9, 3-(2-Chloro-6-methyl-4-pyridyl)-2-(3-cyanophenyl)-N-(2,3-dihydroxy-2-methyl-propyl)pyrazolo[1,5-a]pyrimidine-5-carboxamide] | 8.00
21 | < 6.00 | 8.77 | 6.41 | 7.77 | 6.37 | Cc1cc(-c2c(-c3cccc(C#N)c3)nn3ccc(C(=O)NC[C@H](O)CO)nc23)cc(Cl)n1 [Example 6.13, 3-(2-Chloro-6-methyl-4-pyridyl)-2-(3-cyanophenyl)-N-[(2S)-2,3-dihydroxypropyl]pyrazolo[1,5-a]pyrimidine-5-carboxamide] | 7.49
